In patent US7538132B2, “Isoxazolo derivatives” (Hoffman-La Roche Inc., priority 2005, dated 2009) one finds Ki data, which are given here for 31 compounds.

SMILES strings stand for the structures.

The test has as its target T1, GABA A receptor α5β3γ2 (hα5) (Homo sapiens, UniProt P18507+P31644).
T1 construct: expressed in transfected cells; host or cells: HEK293 (transiently transfected; membranes prepared from cell pellets)
Kind of test: [3H]flumazenil competition binding assay, human GABA A α5β3γ2 receptors. Particulars: displacement of [3H]flumazenil (0.5 nM) from membranes of HEK293 cells expressing human α5β3γ2; 1 hour at 4° C.; means of two determinations. As to the method:
The affinity of compounds at GABA A receptor subtypes was measured by competition for [3H]flumazenil (85 Ci/mmol; Roche) binding to HEK293 cells expressing rat (stably transfected) or human (transiently transfected) receptors of composition α1β3γ2, α2⊖3γ2, α3β3γ2 and α5β3γ2.
Cell pellets were suspended in Krebs-tris buffer (4.8 mM KCl, 1.2 mM CaCl2, 1.2 mM MgCl2, 120 mM NaCl, 15 mM Tris; pH 7.5; binding assay buffer), homogenized by polytron for ca. 20 sec on ice and centrifuged for 60 min at 4° C. (50000 g; Sorvall, rotor: SM24=20000 rpm). The cell pellets were resuspended in Krebs-tris buffer and homogenized by polytron for ca. 15 sec on ice. Protein was measured (Bradford method, Bio-Rad) and aliquots of 1 mL were prepared and stored at −80° C.
Assays were incubated to equilibrium for 1 hour at 4° C. and harvested onto GF/C uni-filters (Packard) by filtration using a Packard harvester and washing with ice-cold wash buffer (50 mM Tris; pH 7.5). After drying, filter-retained radioactivity was detected by liquid scintillation counting. Ki values were calculated using Excel-Fit (Microsoft) and are the means of two determinations.
`Cc1onc(-c2ccccc2)c1C(=O)c1c[nH]c(C(=O)NC2CCC2)c1` [Example 15, 4-(5-Methyl-3-phenyl-isoxazole-4-carbonyl)-1H-pyrrole-2-carboxylic acid cyclobutylamide]: the Ki worked out at 0.00795 µM.
Then `Cc1onc(-c2ccc(Cl)cc2)c1C(=O)c1c[nH]c(C(=O)NCCO)c1` [Example 153, 4-[3-(4-Chloro-phenyl)-5-methyl-isoxazole-4-carbonyl]-1H-pyrrole-2-carboxylic acid (2-hydroxy-ethyl)-amide], with 0.00755 µM.
Then `CCc1onc(-c2ccccc2)c1C(=O)c1c[nH]c(C(=O)NC2CCOCC2)c1` [Example 210, 4-(5-Ethyl-3-phenyl-isoxazole-4-carbonyl)-1H-pyrrole-2-carboxylic acid (tetrahydro-pyran-4-yl)-amide], with 0.00245 µM; and `Cc1onc(-c2ccc(Br)cc2)c1C(=O)c1c[nH]c(C(=O)NC2CCOC(C)(C)C2)c1` (stereo not shown) [Example 135, 4-[3-(4-Bromo-phenyl)-5-methyl-isoxazole-4-carbonyl]-1H-pyrrole-2-carboxylic acid (2,2-dimethyl-tetrahydro-pyran-4-yl)-amide], with 0.0045 µM.
For `CCc1onc(-c2ccccc2)c1C(=O)c1c[nH]c(C(=O)NC2CCCC2)c1` [Example 215, 4-(5-Ethyl-3-phenyl-isoxazole-4-carbonyl)-1H-pyrrole-2-carboxylic acid cyclopentylamide] the value was 0.0021 µM; for `C#CCNC(=O)c1cc(C(=O)c2c(-c3ccc(Cl)cc3)noc2C)c[nH]1` [Example 157, 4-[3-(4-Chloro-phenyl)-5-methyl-isoxazole-4-carbonyl]-1H-pyrrole-2-carboxylic acid prop-2-ynylamide], 0.00745 µM; for `Cc1onc(-c2ccc(Br)cc2)c1C(=O)c1c[nH]c(C(=O)N[C@H]2CC[C@H](O)CC2)c1` [Example 123, 4-[3-(4-Bromo-phenyl)-5-methyl-isoxazole-4-carbonyl]-1H-pyrrole-2-carboxylic acid (4-hydroxy-cyclohexyl)-amide], 0.0045 µM.
In turn, `Cc1onc(-c2ccccc2F)c1C(=O)c1c[nH]c(C(=O)NC2CCCC2)c1` [Example 173, 4-[3-(2-Fluoro-phenyl)-5-methyl-isoxazole-4-carbonyl]-1H-pyrrole-2-carboxylic acid cyclopentylamide] gave a Ki of 0.0063 µM.
Take `Cc1onc(-c2ccccc2)c1C(=O)c1c[nH]c(C(=O)NC2CCOCC2)c1` [Example 26, 4-(5-Methyl-3-phenyl-isoxazole-4-carbonyl)-1H-pyrrole-2-carboxylic acid (tetrahydro-pyran-4-yl)-amide]: the Ki came to 0.00285 µM.
For `Cc1onc(-c2ccc(F)cc2)c1C(=O)c1c[nH]c(C(=O)NCCc2cnc[nH]2)c1` [Example 141, 4-[3-(4-Fluoro-phenyl)-5-methyl-isoxazole-4-carbonyl]-1H-pyrrole-2-carboxylic acid [2-(1H-imidazol-4-yl)-ethyl]-amide] the value was 0.00605 µM.
For `Cc1onc(-c2ccc(F)cc2)c1C(=O)c1c[nH]c(C(=O)NC2CCCC2)c1` [Example 136, 4-[3-(4-Fluoro-phenyl)-5-methyl-isoxazole-4-carbonyl]-1H-pyrrole-2-carboxylic acid cyclopentylamide] the value was 0.00165 µM.
For `Cc1onc(-c2ccc(F)c(F)c2)c1C(=O)c1c[nH]c(C(=O)NC2CCCC2)c1` [Example 255, 4-[3-(3,4-Difluoro-phenyl)-5-methyl-isoxazole-4-carbonyl]-1H-pyrrole-2-carboxylic acid cyclopentylamide] the value was 0.0064 µM; for `Cc1onc(-c2ccc(F)cc2)c1C(=O)c1c[nH]c(C(=O)NC2CCC2)c1` [Example 138, 4-[3-(4-Fluoro-phenyl)-5-methyl-isoxazole-4-carbonyl]-1H-pyrrole-2-carboxylic acid cyclobutylamide], 0.0036 µM.
`Cc1onc(-c2ccc(Cl)cc2)c1C(=O)c1c[nH]c(C(=O)NC2CC2)c1` [Example 154, 4-[3-(4-Chloro-phenyl)-5-methyl-isoxazole-4-carbonyl]-1H-pyrrole-2-carboxylic acid cyclopropylamide] showed a Ki of 0.0061 µM.
Consider `Cc1onc(-c2cccc(F)c2)c1C(=O)c1c[nH]c(C(=O)NC2CCCC2)c1` [Example 178, 4-[3-(3-Fluoro-phenyl)-5-methyl-isoxazole-4-carbonyl]-1H-pyrrole-2-carboxylic acid cyclopentylamide], for which the affinity corresponds to a Ki of 0.0061 µM.
Regarding `CCc1onc(-c2ccccc2)c1C(=O)c1c[nH]c(C(=O)NC2CC2)c1` [Example 217, 4-(5-Ethyl-3-phenyl-isoxazole-4-carbonyl)-1H-pyrrole-2-carboxylic acid cyclopropylamide], the affinity corresponds to a Ki of 0.00485 µM.
In turn, `Cc1onc(-c2ccccc2)c1C(=O)c1c[nH]c(C(=O)NCC2CC2)c1` [Example 12, 4-(5-Methyl-3-phenyl-isoxazole-4-carbonyl)-1H-pyrrole-2-carboxylic acid cyclopropylmethyl-amide] returned a Ki of 0.0066 µM.
As to `COCc1onc(-c2ccc(F)cc2)c1C(=O)c1c[nH]c(C(=O)NC2CCOCC2)c1` [Example 221, 4-[3-(4-Fluoro-phenyl)-5-methoxymethyl-isoxazole-4-carbonyl]-1H-pyrrole-2-carboxylic acid (tetrahydro-pyran-4-yl)-amide], the affinity, expressed as Ki, was 0.0043 µM.
For `Cc1onc(-c2ccc(F)cc2)c1C(=O)c1c[nH]c(C(=O)NCCO)c1` [Example 140, 4-[3-(4-Fluoro-phenyl)-5-methyl-isoxazole-4-carbonyl]-1H-pyrrole-2-carboxylic acid (2-hydroxy-ethyl)-amide] the value was 0.0099 µM; for `Cc1onc(-c2ccc(Br)cc2)c1C(=O)c1cc(C(=O)NC2CCOCC2)n(C)c1` [Example 231, 4-[3-(4-Bromo-phenyl)-5-methyl-isoxazole-4-carbonyl]-1-methyl-1H-pyrrole-2-carboxylic acid (tetrahydro-pyran-4-yl)-amide], 0.008 µM; for `Cc1onc(-c2ccc(Br)cc2)c1C(=O)c1c[nH]c(C(=O)NC2CCOCC2)c1` [Example 61, 4-[3-(4-Bromo-phenyl)-5-methyl-isoxazole-4-carbonyl]-1H-pyrrole-2-carboxylic acid (tetrahydro-pyran-4-yl)-amide], 0.00365 µM.
Consider `Cc1onc(-c2ccc(Br)cc2)c1C(=O)c1c[nH]c(C(=O)NC(C)C)c1` [Example 84, 4-[3-(4-Bromo-phenyl)-5-methyl-isoxazole-4-carbonyl]-1H-pyrrole-2-carboxylic acid isopropylamide], for which the Ki amounted to 0.00685 µM.
Then `Cc1onc(-c2ccc(Cl)cc2)c1C(=O)c1c[nH]c(C(=O)NCc2ccco2)c1` [Example 160, 4-[3-(4-Chloro-phenyl)-5-methyl-isoxazole-4-carbonyl]-1H-pyrrole-2-carboxylic acid (furan-2-ylmethyl)-amide], with 0.0069 µM; and `Cc1onc(-c2ccc(Cl)cc2)c1C(=O)c1c[nH]c(C(=O)NC2CCOCC2)c1` [Example 162, 4-[3-(4-Chloro-phenyl)-5-methyl-isoxazole-4-carbonyl]-1H-pyrrole-2-carboxylic acid (tetrahydro-pyran-4-yl)-amide], with 0.0014 µM; and `Cc1onc(-c2ccc(Cl)cc2)c1C(=O)c1c[nH]c(C(=O)NC2CCCC2)c1` [Example 152, 4-[3-(4-Chloro-phenyl)-5-methyl-isoxazole-4-carbonyl]-1H-pyrrole-2-carboxylic acid cyclopentylamide], with 0.0052 µM.
As for `C#CCNC(=O)c1cc(C(=O)c2c(-c3ccc(F)cc3)noc2C)c[nH]1` [Example 145, 4-[3-(4-Fluoro-phenyl)-5-methyl-isoxazole-4-carbonyl]-1H-pyrrole-2-carboxylic acid prop-2-ynylamide], affinity was put at a Ki of 0.00775 µM.
`Cc1onc(-c2ccc(Br)cc2)c1C(=O)c1cc(C(=O)NCCCN2CCOCC2)n(C)c1` [Example 232, 4-[3-(4-Bromo-phenyl)-5-methyl-isoxazole-4-carbonyl]-1-methyl-1H-pyrrole-2-carboxylic acid (3-morpholin-4-yl-propyl)-amide] gave a Ki of 0.0087 µM.
Then `Cc1onc(-c2ccc(F)c(F)c2)c1C(=O)c1c[nH]c(C(=O)NC2CCOCC2)c1` [Example 254, 4-[3-(3,4-Difluoro-phenyl)-5-methyl-isoxazole-4-carbonyl]-1H-pyrrole-2-carboxylic acid (tetrahydro-pyran-4-yl)-amide], with 0.0042 µM; and `CCc1onc(-c2ccccc2)c1C(=O)c1c[nH]c(C(=O)NCC2CC2)c1` [Example 216, 4-(5-Ethyl-3-phenyl-isoxazole-4-carbonyl)-1H-pyrrole-2-carboxylic acid cyclopropylmethyl-amide], with 0.0023 µM; and `Cc1onc(-c2ccc(F)cc2)c1C(=O)c1c[nH]c(C(=O)NC2CC2)c1` [Example 137, 4-[3-(4-Fluoro-phenyl)-5-methyl-isoxazole-4-carbonyl]-1H-pyrrole-2-carboxylic acid cyclopropylamide], with 0.0041 µM.
Consider `Cc1onc(-c2ccc(F)cc2)c1C(=O)c1c[nH]c(C(=O)NC2CCOCC2)c1` [Example 146, 4-[3-(4-Fluoro-phenyl)-5-methyl-isoxazole-4-carbonyl]-1H-pyrrole-2-carboxylic acid (tetrahydro-pyran-4-yl)-amide], for which the affinity corresponds to a Ki of 0.00155 µM. This Ki lies about 2.6-fold lower than the previous one.
